Laboratory results reported in patent US10208033B2, “β-carboline, dihydro-β-carboline and tetrahydro-β-carboline alkaloid derivatives and preparation methods same and use in aspects of preventing and treating plant viruses, fungicides and insecticides” (NANKAI UNIVERSITY, priority 2013, dated 2019).

Columns and labels:
corn borers [1] = details: concentration 600 mg/kg
[2] = tested on: Colletotrichum orbiculare; assay: Fungicidal (bactericidal) activity in vitro, PDA colony diameter; type: cell-based; details: 50 mg/kg
[3] = tested on: tobacco mosaic virus (TMV); assay: Anti-TMV in vitro effect (half-leaf soaking); type: cell-based, tobacco mosaic virus (host Nicotiana tabacum L.cv.Xanthi NN)
[4] = tested on: tobacco mosaic virus (TMV); assay: Anti-TMV in vivo inactivation; parameters: species or system tobacco mosaic virus (host Nicotiana tabacum L.cv.Xanthi NN)
Cercospora arachidicola = assay: Fungicidal (bactericidal) activity in vitro, PDA colony diameter; type: cell-based; details: 50 mg/kg
armyworms = type: in vivo; details: concentration 600 mg/kg
Rhizoctonia cereali = assay: Fungicidal (bactericidal) activity in vitro, PDA colony diameter; type: cell-based; details: 50 mg/kg
Macrophoma kawatsukai = assay: as above; type: cell-based; details: 50 mg/kg
mosquito larvae = assay: whole plant or invertebrate; details: 24 h; for Mosquito larvae Mortality (%): concentration 10 mg/kg
Summary of the method: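 Early fourth-instar Culex pipiens pallens larvae from an indoor colony, 10 per beaker, exposed to test compound at 5 ppm in water, diluted from a 1000 ppm acetone mother solution. Blank: water containing 0.5 mL test solvent.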

Bipolaria maydis = assay: organism not typed; type: cell-based; details: 50 mg/kg
Fusarium graminearumt = assay: microbe, parasite or virus in culture; type: cell-based; details: 50 mg/kg
Rhizoctonia solani = assay: Fungicidal (bactericidal) activity in vitro, PDA colony diameter; type: cell-based; details: 50 mg/kg
cotton bollworms = assay: whole plant or invertebrate; details: for Cotton bollworm Mortality (%): concentration 600 mg/kg
Protocol: Experimental method of cotton bollworms: feed and drug mixing method: measure 3 mL of prepared solution and add it to about 27 g of newly prepared feed, thereby obtaining needed concentration through dilution by 10 times.

Sclerotinia scleotiorum = assay: Fungicidal (bactericidal) activity in vitro, PDA colony diameter; type: cell-based; details: 50 mg/kg
Botrytis cinerea = assay: as above; type: cell-based; details: 50 mg/kg
Alternaria solani = assay: as above; type: cell-based; details: 50 mg/kg
[5] = tested on: tobacco mosaic virus (TMV); assay: Anti-TMV in vivo protective effect; parameters: species or system tobacco mosaic virus (host Nicotiana tabacum L.cv.Xanthi NN)
Fusarium fujikuroi = assay: Fungicidal (bactericidal) activity in vitro, PDA colony diameter; type: cell-based; details: 50 mg/kg
cucumber fusarium wilt = assay: as above; type: cell-based; details: 50 mg/kg
potato late blight = assay: microbe, parasite or virus in culture; type: cell-based
[6] = tested on: tobacco mosaic virus (TMV); assay: Anti-TMV in vivo therapeutic effect; parameters: species or system tobacco mosaic virus (host Nicotiana tabacum L.cv.Xanthi NN)
Phytophthora capsici = assay: Fungicidal (bactericidal) activity in vitro, PDA colony diameter; type: cell-based; details: 50 mg/kg
corn borers [7] = assay: whole plant or invertebrate; details: read-out: Corn borer Mortality (%)

SMILES	Corn borer Mortality (%) (corn borers [1])	Bactericidal activity (%) Colletotrichum orbiculare [2] [%]	Relative inhibition rate (%) In vitro activity ([3]; treatment dose 100 μg/mL) [%]	Relative inhibition rate (%) In vitro activity ([3]; treatment dose 500 μg/mL) [%]	Relative inhibition rate (%) In vivo inactivation ([4]; treatment dose 100 μg/mL) [%]	Relative inhibition rate (%) In vivo inactivation ([4]; treatment dose 500 μg/mL) [%]	Bactericidal activity (%) Cercospora arachidicola (Cercospora arachidicola) [%]	Armyworm Mortality (%) (armyworms)	Bactericidal activity (%) Rhizoctonia cereali (Rhizoctonia cereali) [%]	Bactericidal activity (%) Macrophoma kawatsukai (Macrophoma kawatsukai) [%]	Mosquito larvae Mortality (%) (mosquito larvae)	Bactericidal activity (%) Bipolaria maydis (Bipolaria maydis) [%]	Bactericidal activity (%) Fusarium graminearumt (Fusarium graminearumt) [%]	Bactericidal activity (%) Rhizoctonia solani (Rhizoctonia solani) [%]	Cotton bollworm Mortality (%) (cotton bollworms)	Bactericidal activity (%) Sclerotinia scleotiorum (Sclerotinia scleotiorum) [%]	Bactericidal activity (%) Botrytis cinerea (Botrytis cinerea) [%]	Bactericidal activity (%) Alternaria solani (Alternaria solani) [%]	Relative inhibition rate (%) In vivo protection ([5]; treatment dose 100 μg/mL) [%]	Relative inhibition rate (%) In vivo protection ([5]; treatment dose 500 μg/mL) [%]	other results
Cc1nnsc1C(=O)NNC(=O)[C@@H]1Cc2c([nH]c3ccccc23)[C@H](C)N1 [Id-2, 4-methyl-N′-((1S, 3S)-1-methyl-2,3,4,9-tetrahydropyridino [3,4-b]indol-3-triformyl)-1,2,3-thiadiazole-5-formylhydrazine]	40	24.0	13.5	41.2	9.8	42.9	18.2	40	45.9	39.4	80	28.0	53.8	0.0	40	19.2	61.1	14.3	16	51.3	Bactericidal activity (%) Fusarium fujikuroi (Fusarium fujikuroi): 29.4%; Bactericidal activity (%) Cucumber fusarium wilt (cucumber fusarium wilt): 4.5%; Bactericidal activity (%) potato late blight (potato late blight): 30.4%; Relative inhibition rate (%) In vivo therapy ([6]; treatment dose 100 μg/mL): 19.1%; Relative inhibition rate (%) In vivo therapy ([6]; treatment dose 500 μg/mL): 48.8%; Bactericidal activity (%) Phytophthora capsici (Phytophthora capsici): 6.1%
C[C@@H]1N[C@H](C(=O)NNC(=O)c2ccncc2)Cc2c1[nH]c1ccccc21 [Id-3, (1S, 3S)—N′-isonicotinoyl-1-methyl-2,3,4,9-tetrahydropyridino [3,4-b] indol-3-formylhydrazine]	25	36.0	6.4	39.2	17.9	45.3	27.3	25	18.9	39.4	50	16.0	53.8	15.3	40	3.8	55.6	14.3	14.2	42.1	Bactericidal activity (%) Fusarium fujikuroi (Fusarium fujikuroi): 29.4%; Bactericidal activity (%) Cucumber fusarium wilt (cucumber fusarium wilt): 13.6%; Bactericidal activity (%) potato late blight (potato late blight): 26.1%; Relative inhibition rate (%) In vivo therapy ([6]; treatment dose 100 μg/mL): 11.6%; Relative inhibition rate (%) In vivo therapy ([6]; treatment dose 500 μg/mL): 45%; Bactericidal activity (%) Phytophthora capsici (Phytophthora capsici): 15.2%
C[C@@H]1N[C@H](C(=O)NNC(=O)c2ccccc2)Cc2c1[nH]c1ccccc21 [Id-4, (1S, 3S)—N′-benzoyl-1-methyl-2,3,4,9-tetrahydropyridino [3,4-b] indol-3-formylhydrazine]	15	32.0	0	36.9	0	37.5	27.3	10	35.1	45.5	25	28.0	38.5	5.6	30	7.7	55.6	33.3	12.1	40	Bactericidal activity (%) Fusarium fujikuroi (Fusarium fujikuroi): 29.4%; Bactericidal activity (%) Cucumber fusarium wilt (cucumber fusarium wilt): 13.6%; Bactericidal activity (%) potato late blight (potato late blight): 17.4%; Relative inhibition rate (%) In vivo therapy ([6]; treatment dose 100 μg/mL): 0%; Relative inhibition rate (%) In vivo therapy ([6]; treatment dose 500 μg/mL): 34.2%; Bactericidal activity (%) Phytophthora capsici (Phytophthora capsici): 18.2%
CCCCCC(=O)NNC(=O)[C@@H]1Cc2c([nH]c3ccccc23)[C@H](C)N1 [Id-5, (1S, 3S)—N′—N-Hexanoyl-1-methyl-2,3,4,9-tetrahydropyridino [3,4-b] indol-3-formylhydrazine]	25	28.0	0	32.1	0	31.5	45.5	5	29.7	63.6	10	32.0	46.2	1.4	30	26.9	66.7	23.8	0	30.9	Bactericidal activity (%) Fusarium fujikuroi (Fusarium fujikuroi): 29.4%; Bactericidal activity (%) Cucumber fusarium wilt (cucumber fusarium wilt): 22.7%; Bactericidal activity (%) potato late blight (potato late blight): 26.1%; Relative inhibition rate (%) In vivo therapy ([6]; treatment dose 100 μg/mL): 0%; Relative inhibition rate (%) In vivo therapy ([6]; treatment dose 500 μg/mL): 27.3%; Bactericidal activity (%) Phytophthora capsici (Phytophthora capsici): 21.2%
COc1ccc2c3c([nH]c2c1)C(C)NCC3 (centres unmarked) [Tetrahydroharmine]	–	–	–	–	–	–	–	0	–	–	–	–	–	–	–	–	–	–	–	–	inhibition at 100 µg/mL ([3]; Tobacco mosaic virus, treatment dose 100 μg/mL, read-out: Relative inhibition rate (%) In vitro activity): 28.7%; inhibition at 500 µg/mL ([3]; Tobacco mosaic virus, treatment dose 500 μg/mL, read-out: Relative inhibition rate (%) In vitro activity): 58.2%; inhibition at 100 µg/mL ([4]; Tobacco mosaic virus, treatment dose 100 μg/mL, read-out: Relative inhibition rate (%) In vivo inactivation): 26.4%; inhibition at 500 µg/mL ([4]; Tobacco mosaic virus, treatment dose 500 μg/mL, read-out: Relative inhibition rate (%) In vivo inactivation): 59.8%; mortality at 10 mg/kg (mosquito larvae; Culex pipiens, read-out: Mosquito larvae Mortality (%)): 15%; mortality at 600 mg/kg (cotton bollworms; Helicoverpa armigera, in Gossypium hirsutum, read-out: Cotton bollworm Mortality (%)): 10%; inhibition at 100 µg/mL ([5]; Tobacco mosaic virus, treatment dose 100 μg/mL, read-out: Relative inhibition rate (%) In vivo protection): 24.2%; inhibition at 500 µg/mL ([5]; Tobacco mosaic virus, treatment dose 500 μg/mL, read-out: Relative inhibition rate (%) In vivo protection): 54.6%; mortality at 600 mg/kg (corn borers [7]): 0%; inhibition at 100 µg/mL ([6]; Tobacco mosaic virus, treatment dose 100 μg/mL, read-out: Relative inhibition rate (%) In vivo therapy): 27.3%; inhibition at 500 µg/mL ([6]; Tobacco mosaic virus, treatment dose 500 μg/mL, read-out: Relative inhibition rate (%) In vivo therapy): 55.5%
